Here are results for one compound from US20200383969A1, “RIMEGEPANT FOR CGRP RELATED DISORDERS” (Biohaven Pharmaceutical Holding Company Ltd., priority 2018, published 2020).

A short description of data set [1]: Pooled liver function test profile, Studies 301 and 302. It is filed as in vivo, human. The following applies: pooled Studies 301+302; n = 1089. On the procedure:
Results from Clinical Trials—The study results from the clinical studies described in Example 2 and Example 3 are set forth in FIG. 1, FIG. 2 and Table 2, Table 3 and Table 4.
(§1) In a double-blind, randomized, placebo-controlled, multicenter study (Study 301, NCT03235479) adults ≥18 years of age with at least a 1-year history of ICHD 3-beta migraine were eligible to participate. Following a 3- to 28-day screening period, subjects were randomized to receive rimegepant 75 mg or matching placebo and instructed to treat a single migraine attack with 1 dose of the blinded study drug (rimegepant or placebo) when headache pain reached moderate or severe intensity. The coprimary endpoints were pain freedom at 2 hours postdose and freedom from the most bothersome symptom (MBS) at 2 hours postdose. Safety assessments included adverse events (AEs), ECGs, vital signs, physical measurements, and routine laboratory tests, including assessment of liver function. Unless stated otherwise, values presented are mean ±SD.
as §1, with “302, NCT03237845)” for “301, NCT03235479)”

Data set [2] can be described thus: Study 303 (BHV3000-303), Phase 3, rimegepant 75 mg ODT vs placebo, acute treatment of migraine. The data set is classed as in vivo, human. The source says:
Clinical Trial—BHV3000-303: Phase 3: Double-Blind, Randomized, Placebo-Controlled, Safety and Efficacy Trial of BHV-3000 (Rimegepant) Orally Discintegrating Tablet (ODT) for the Acute Treatment of Migraine (ClinicalTrials.gov Identifier: NCT03461757) • Study Type: Interventional (Clinical Trial) • Actual Enrollment: 1812 participants • Allocation: Randomized • Intervention Model: Parallel Assignment • Masking: Triple (Participant, Care Provider, Investigator) • Primary Purpose: Treatment • Official Title: BHV3000-303: Phase 3, Double-Blind, Randomized, Placebo Controlled, Safety and Efficacy Trial of BHV-3000 (Rimegepant) Orally Disintegrating Tablet (ODT) for the Acute Treatment of Migraine • Actual Study Start Date: Feb. 27, 2018 • Actual Primary Completion Date: Oct. 8, 2018 • Actual Study Completion Date: Oct. 15, 2018 • 1. Pain freedom of rimegepant compared with placebo in the acute treatment of migraine will be measured using the number of evaluable subjects that report no pain at 2 hours post-dose. • Pain will be measured on a 4 point Likert scale (0=none, 1=mild, 2=moderate, 3=severe) • 2. Freedom from the most bothersome symptom (MBS) of rimegepant compared with placebo will be measured using the number of evaluable subjects that report the absence of their MBS at 2 hours post-dose. [Time Frame: Two Hours Post Dose] • The MBS (nausea, phonophobia or photophobia) will measured using a binary scale (0=absent, 1=present). • 1. […] [Time Frame: 2 Hours Post-Dose] • Pain Relief as measured by a 4 point numeric rating scale (None, Mild, Moderate, Severe) • 2. […] [ Time Frame: 2 hours-24 hours post-dose] • Sustained Pain Relief as measured by a 4 point numeric rating scale (None, Mild, Moderate, Severe) • 4. […] To measure rimegepant compared to placebo on the probability of requiring rescue medication will be assessed using the number of subjects that take rescue medication within […] administration of study medication (BHV3000 or placebo). […] Sustained ability to function at a normal level as measured by the Functional disability scale [Time Frame: 2 to 24 hours post dose] • Subjects self-report “normal” on the functional disability scale • 7. […] [Time Frame: 2 hours-48 hours post-dose] • Sustained Pain Relief as measured by a 4 point numeric rating scale (None, Mild, Moderate, Severe) • 8. […] Sustained ability to function at a normal level as measured by the Functional disability scale [Time Frame: 2 to 48 hours post dose] • Subjects self-report “normal” on the functional disability scale • 10. […] [Time Frame: 90 minutes post dose] • Pain Relief as measured by a 4 point numeric rating scale (None, Mild, Moderate, Severe) • 13. […] [Time Frame: 2 hours -24 hours post-dose] • Sustained Pain Freedom as measured by a 4 point numeric rating scale (None, Mild, Moderate, Severe) • 14. […]

The structures appear in SMILES notation.

Take `N[C@@H]1c2cccnc2[C@H](OC(=O)N2CCC(n3c(=O)[nH]c4ncccc43)CC2)CC[C@H]1c1cccc(F)c1F` [Rimegepant, [(5S,6S,9R)-5-amino-6-(2,3-difluorophenyl)-6,7,8,9-tetrahydro-5H-cyclohepta[b]pyridin-9-yl] 4-(2-oxo-3H-imidazo[4,5-b]pyridin-1-yl)piperidine-1-carboxylate]: in data set [1], the “ALT >3 × ULN, subjects” value is recorded as 0.1%; the “ALT >ULN, subjects” value is recorded as 2.0%; the “AST >3 × ULN, subjects” value came out at 0.1%; the “AST >ULN, subjects” value came to 1.1%. In addition, in data set [2] (Study 303), the “LFTs>3×ULN, number of patients” value is “one”. In data set [2] (Study 303, single dose), the “Clinical benefit through 48 hours (pain relief, pain freedom, MBS, functional disability) vs placebo” value is listed as “Lasting clinical benefit”. In addition, the Safety and tolerability result in data set [2] (Study 303 vs Studies 301 and 302) is “consistent with the profile previously observed”. For the same compound, the “Highest incidence of any single adverse event” value in data set [2] (rimegepant group, Study 303 paragraph, sentence follows mention of pooled Table 9) is no more than 1.6%.
